Source: ChEMBL document CHEMBL1136024, “CCR3 antagonists: a potential new therapy for the treatment of asthma. Discovery and structure-activity relationships” (Bioorg Med Chem Lett, 2002)

What was measured:
[1] = target: T1, C-C chemokine receptor type 3 (Homo sapiens, UniProt P51677); experiment: In vitro inhibition if C-C chemokine receptor type 3 (CCR3) using 150p M [125I]-labeled human eotaxin
T1 sequence (P51677 whole entry): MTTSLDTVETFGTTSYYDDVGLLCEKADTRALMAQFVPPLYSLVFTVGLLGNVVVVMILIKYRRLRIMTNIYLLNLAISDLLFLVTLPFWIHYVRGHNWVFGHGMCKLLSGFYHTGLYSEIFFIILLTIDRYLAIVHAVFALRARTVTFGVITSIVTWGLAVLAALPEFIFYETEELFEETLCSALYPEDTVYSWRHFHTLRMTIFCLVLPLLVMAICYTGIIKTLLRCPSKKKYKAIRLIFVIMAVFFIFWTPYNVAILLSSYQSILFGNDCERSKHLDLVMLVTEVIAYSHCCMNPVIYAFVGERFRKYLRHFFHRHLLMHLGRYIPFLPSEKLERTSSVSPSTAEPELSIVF

[2] = target: T1, C-C chemokine receptor type 3; experiment: In vitro C-C chemokine receptor type 3 receptor activity of compound to inhibit eotaxin induced [Ca2+] mobilization in human Ca2+ mobilization assay
[3] = target: T2, C-C chemokine receptor type 3 (Homo sapiens) (UniProt P51677); experiment: In vitro inhibitory activity of compound against C-C chemokine receptor type 3 at 5 uM using 150p M [125I]-labeled human eotaxin as radioligand
T2 sequence (whole entry): T1 sequence (P51677 whole entry)

[4] = target: T2, C-C chemokine receptor type 3 (Homo sapiens); experiment: In vitro inhibitory activity against C-C chemokine receptor type 3 at 10 uM using 150p M [125I]-labeled human eotaxin
[5] = target: T2, C-C chemokine receptor type 3 (Homo sapiens); settings: 0.5 uM
Description: In vitro inhibitory activity of compound against C-C chemokine receptor type 3 at 0.5 uM using 150p M [125I]-labeled human eotaxin as radioligand

## COc1cccc(NC(=O)N2CCCC(CN3CCC(Cc4ccc(F)cc4)CC3)C2)c1 (racemic)
[1]
  IC50: 50 nM
[2]
  IC50: 820 nM

## N#Cc1cccc(NC(=O)NCCCN2CCC(Cc3ccc(C(F)(F)F)cc3)CC2)c1
[3]
  inhibition: 52%

## COc1cccc(NC(=O)N2CCOC(CN3CCC(Cc4ccc(F)cc4)CC3)C2)c1 (racemic)
[1]
  IC50: 50 nM
[2]
  IC50: 220 nM

## COc1cccc(NC(=O)N2CCNC(CN3CCC(Cc4ccc(F)cc4)CC3)C2)c1 (racemic)
[1]
  IC50: 30 nM
[2]
  IC50: 140 nM

## Fc1ccc(CCCN2CC[C@@H]3[C@H](C2)c2cccc4c2N3CC4)cc1
[1]
  IC50: 500 nM
[4]
  inhibition: 100%

## COc1cccc(NC(=O)N2CCN(C(=O)OC(C)(C)C)C(CN3CCC(Cc4ccc(F)cc4)CC3)C2)c1 (racemic)
[1]
  IC50: 40 nM
[2]
  IC50: 200 nM

## CC(C)(C)C(=O)NCCCCN1CC[C@@H]2[C@H](C1)c1cccc3c1N2CC3
[1]
  IC50: 25600 nM
[4]
  inhibition: 45%

## O=C(NCCCCN1CC[C@@H]2[C@H](C1)c1cccc3c1N2CC3)C1CCCCC1
[1]
  IC50: 11000 nM
[4]
  inhibition: 45%

## CC[C@H](O)[C@H]1C[C@@H](Cc2ccccc2)CCN1CCCNC(=O)Nc1cccc(C(C)=O)c1
[5]
  inhibition: 40%
